# Measurements as given in publication PMC11207052, “Synthesis, Biological, and Computational Evaluations of Conformationally Restricted NAD-Mimics as Discriminant Inhibitors of Human NMN-Adenylyltransferase Isozymes” (Pharmaceuticals, 2024).
# Structures can show the parent of a compound that is named as a salt. Where two headings read alike, the source gives them in different places.
# What was measured:
# hNMNAT-3 [1] = molecular target: T1, hNMNAT-3 (Homo sapiens, UniProt Q96T66); design: method as in PMID 16118205, PMID 18336280; conditions: most sensitive isoform; cited from earlier work
# T1 construct: made in house
# hNMNAT-1 = molecular target: T2, hNMNAT-1 (Homo sapiens, UniProt Q9HAN9); experiment: NMN adenylyltransferase activity assay (pyrophosphatase-coupled, malachite green), hNMNAT-1; format: biochemical; design: key to mode of inhibition (in brackets) towards NMN, hNMNAT-1 / mode of inhibition (in brackets) towards ATP, hNMNAT-1: M, mixed inhibition; C, competitive; U, uncompetitive; conditions: for Ki: inhibitor 30 and 90 µM, ± std. error, αKi in the case of uncompetitive inhibition
# T2 construct: made in house
# From the text: (§1) The reaction catalyzed by NMN adenylyltransferase can be represented as NMN + ATP (NAD + PPi). To avoid interference of methyl NAD analogues with NAD-based detection assays, we used a “pyrophosphate-dependent” coupled assay that couples NMNAT activity with inorganic pyrophosphatase (PPase) that hydrolyzes PPi into two molecules of inorganic phosphate (Pi). Phosphate was quantified using a malachite green dye as described. Enzyme purification procedures followed previous reports. The reactions were carried out using a 96-well microplate assay format at room temperature in a total volume of 50 µL per well. The reaction mixtures contained 100 mM Hepes, pH 7.5, 10 mM MgCl2, 0.1 mg/mL bovine serum albumin, and an excess of 4 U/mL of inorganic pyrophosphatase. The hNMNAT concentration, ranging from 3 to 15 nM, was adjusted in different tests to ensure initial velocity conditions (5–10% substrate depletion) while retaining a linear response. An amount of 100 µL of the malachite green reagent was added to each well to stop the reactions. Following a 20–30 min incubation period, the molybdate in the reagent formed a complex with the free phosphate, resulting in full-color development. The phosphate concentration was then quantified by measuring the absorbance at 620 nm using a microplate reader (Biotek Synergy HT) and interpolating these values against a pre-established standard curve. Absorbance from control reactions performed in the absence of hNMNAT were subtracted from absorbances of the respective reactions with the enzyme to account for background hydrolysis. Details for substrate and inhibitor concentration range are given below and in the legend of Figure 2. Assays with the inhibitors were carried out in triplicate, and the percentage of inhibition at each concentration was calculated for the initial screening at 0.5 mM.
# (§2) Values for inhibition constant Ki and α were determined by fitting the data to the rate equation for general mixed model inhibition: V = VmaxS/[Km(1 + I/Ki) + S(1 + I/[…])] using GraphPad Prism software version 7.05, where Vmax and Km are the classic Michaelis–Menten parameters, Ki is the equilibrium dissociation constant for the enzyme-inhibitor complex, S and I are the substrate and the inhibitor concentration, respectively. This model includes competitive, uncompetitive, and noncompetitive inhibition as special cases that the α values can diagnose. Further mechanistic insights into the mode of inhibition were drawn by graphical inspection of the Lineaweaver–Burk plots.
# hNMNAT-3 [2] = molecular target: T1, hNMNAT-3; experiment: NMN adenylyltransferase activity assay (pyrophosphatase-coupled, malachite green), hNMNAT-3; format: biochemical; design: key to mode of inhibition (in brackets) towards NMN, hNMNAT-3 / mode of inhibition (in brackets) towards ATP, hNMNAT-3: M, mixed inhibition; C, competitive; U, uncompetitive; conditions: for enzyme inhibition in the initial screening, hNMNAT-3: fixed concentration of 0.5 mM inhibitor; for Ki: inhibitor 30 and 90 µM, ± std. error, αKi in the case of uncompetitive inhibition
# From the text: as §1, §2
# hNMNAT-2 = molecular target: T3, hNMNAT-2 (Homo sapiens, UniProt Q9BZQ4); experiment: NMN adenylyltransferase activity assay (pyrophosphatase-coupled, malachite green), hNMNAT-2; format: biochemical; design: key to mode of inhibition (in brackets) towards NMN, hNMNAT-2 / mode of inhibition (in brackets) towards ATP, hNMNAT-2: M, mixed inhibition; C, competitive; U, uncompetitive; conditions: for enzyme inhibition in the initial screening, hNMNAT-2: fixed concentration of 0.5 mM inhibitor; for Ki: inhibitor 30 and 90 µM, ± std. error, αKi in the case of uncompetitive inhibition
# T3 construct: made in house
# From the text: as §1, §2
# [3] = fixed concentration of 0.5 mM inhibitor
# [4] = ATP varied, NMN fixed (0.5 mM), read-out: Ki towards ATP, hNMNAT-2
# [5] = NMN varied, ATP fixed (0.5 mM), read-out: Ki towards NMN, hNMNAT-2
# [6] = steady-state kinetic analysis, versus ATP
# T3 sequence (Q9BZQ4 whole entry): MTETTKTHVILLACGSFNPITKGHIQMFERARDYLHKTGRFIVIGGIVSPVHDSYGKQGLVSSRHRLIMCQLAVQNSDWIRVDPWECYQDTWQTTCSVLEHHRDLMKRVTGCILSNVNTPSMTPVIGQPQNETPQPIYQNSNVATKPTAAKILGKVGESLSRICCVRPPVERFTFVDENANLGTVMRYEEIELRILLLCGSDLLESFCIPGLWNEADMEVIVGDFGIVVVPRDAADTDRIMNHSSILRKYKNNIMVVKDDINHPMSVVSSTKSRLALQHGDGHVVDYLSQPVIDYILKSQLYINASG
# T2 sequence (Q9HAN9 whole entry): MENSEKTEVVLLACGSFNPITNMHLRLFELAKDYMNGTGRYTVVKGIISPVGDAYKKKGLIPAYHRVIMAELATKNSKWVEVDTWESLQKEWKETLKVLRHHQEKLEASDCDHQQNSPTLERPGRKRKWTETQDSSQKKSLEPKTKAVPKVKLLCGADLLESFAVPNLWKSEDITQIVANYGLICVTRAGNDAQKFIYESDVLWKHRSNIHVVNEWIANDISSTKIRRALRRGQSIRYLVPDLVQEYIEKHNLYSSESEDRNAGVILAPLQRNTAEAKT
# T1 sequence (Q96T66 whole entry, canonical isoform): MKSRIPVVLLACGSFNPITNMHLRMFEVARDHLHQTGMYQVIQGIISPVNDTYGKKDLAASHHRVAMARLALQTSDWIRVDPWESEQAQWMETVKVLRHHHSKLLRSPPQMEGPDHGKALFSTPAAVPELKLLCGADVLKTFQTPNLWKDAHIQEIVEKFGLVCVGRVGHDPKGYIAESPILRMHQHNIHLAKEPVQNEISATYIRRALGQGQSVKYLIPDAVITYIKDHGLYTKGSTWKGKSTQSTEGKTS
compound,measurement,setting,value
O=C(OC[C@H]1O[C@@H](OC(=O)c2cc(O)c(O)c(OC(=O)c3cc(O)c(O)c(O)c3)c2)[C@H](OC(=O)c2cc(O)c(O)c(OC(=O)c3cc(O)c(O)c(O)c3)c2)[C@@H](OC(=O)c2cc(O)c(O)c(OC(=O)c3cc(O)c(O)c(O)c3)c2)[C@@H]1OC(=O)c1cc(O)c(O)c(OC(=O)c2cc(O)c(O)c(O)c2)c1)c1cc(O)c(O)c(OC(=O)c2cc(O)c(O)c(O)c2)c1 [Gallotannin],IC50,hNMNAT-3 [1],2 µM
"C[C@@]1(O)[C@@H](COP(=O)(O)O)O[C@@H](n2cnc3c(N)ncnc32)[C@@H]1O [3′-MeAMP (6), 9H-(3′-C-Methyl-β-D-ribofuranosyl)adenine-5′-monophosphate Tributyl Ammonium Salt]","enzyme inhibition in the initial screening, hNMNAT-1",hNMNAT-1; [3],absence of inhibition
same,"enzyme inhibition in the initial screening, hNMNAT-3",hNMNAT-3 [2],absence of inhibition
same,"enzyme inhibition in the initial screening, hNMNAT-2",hNMNAT-2,absence of inhibition
"C[C@@]1(O)[C@@H](CO)O[C@@H](n2cnc3c(N)ncnc32)[C@@H]1O [Compound 12, 3′-MeAdo]","enzyme inhibition in the initial screening, hNMNAT-1",hNMNAT-1; [3],absence of inhibition
same,"enzyme inhibition in the initial screening, hNMNAT-3",hNMNAT-3 [2],absence of inhibition
same,"enzyme inhibition in the initial screening, hNMNAT-2",hNMNAT-2,absence of inhibition
"C[C@@]1(O)[C@H](O)[C@@H](CO)O[C@H]1n1cnc2c(N)ncnc21 [Compound 11, 2′-MeAdo]","enzyme inhibition in the initial screening, hNMNAT-1",hNMNAT-1; [3],absence of inhibition
same,"enzyme inhibition in the initial screening, hNMNAT-3",hNMNAT-3 [2],absence of inhibition
same,"enzyme inhibition in the initial screening, hNMNAT-2",hNMNAT-2,absence of inhibition
"C[C@@]1(O)[C@H](O)[C@@H](COP(=O)(O)O)O[C@H]1n1cnc2c(N)ncnc21 [2′-MeAMP (5), 9H-(2′-C-Methyl-β-D-ribofuranosyl)adenine-5′-monophosphate Tributyl Ammonium Salt]","enzyme inhibition in the initial screening, hNMNAT-1",hNMNAT-1; [3],absence of inhibition
same,"enzyme inhibition in the initial screening, hNMNAT-3",hNMNAT-3 [2],absence of inhibition
same,"enzyme inhibition in the initial screening, hNMNAT-2",hNMNAT-2,absence of inhibition
"C[C@@]1(O)[C@H](O)[C@@H](COP(=O)([O-])OP(=O)(O)OC[C@H]2O[C@@H]([n+]3cccc(C(N)=O)c3)[C@H](O)[C@@H]2O)O[C@H]1n1cnc2c(N)ncnc21 [2′-MeNAD (1), P^1-[5′-(2′-C-Methyl-β-D-ribofuranosyl)adenine]-P^2-[5′-(β-D-ribofuranosyl)nicotinamide] Pyrophosphate]",inhibition at 500 µM,"hNMNAT-1; fixed concentration of 0.5 mM inhibitor, read-out: enzyme inhibition in the initial screening, hNMNAT-1",< 50%
same,"mode of inhibition (in brackets) towards ATP, hNMNAT-2",hNMNAT-2; ATP varied,M
same,Ki,hNMNAT-2; [4],21 ± 3 µM
same,"mode of inhibition (in brackets) towards NMN, hNMNAT-2",hNMNAT-2; NMN varied,M
same,Ki,hNMNAT-2; [5],15 ± 3 µM
same,"mode of inhibition (in words), hNMNAT-2",hNMNAT-2; steady-state kinetic analysis,mixed-type inhibition with a strong non-competitive character
"C[C@@]1(O)[C@H](O)[C@@H](COP(=O)([O-])OP(=O)(O)OC[C@H]2O[C@@H]([n+]3cccc(C(=O)O)c3)[C@H](O)[C@@H]2O)O[C@H]1n1cnc2c(N)ncnc21 [2′-MeNaAD (3), P^1-[5′-(2′-C-Methyl-β-D-ribofuranosyl)adenine]-P^2-[5′-(β-D-ribofuranosyl)nicotinic acid] Pyrophospshate]","mode of inhibition (in brackets) towards ATP, hNMNAT-1",hNMNAT-1; ATP varied,U
same,Ki,"hNMNAT-1; ATP varied, NMN fixed (0.5 mM), read-out: Ki towards ATP, hNMNAT-1",82 ± 14 µM
same,"mode of inhibition (in brackets) towards NMN, hNMNAT-1",hNMNAT-1; NMN varied,C
same,Ki,"hNMNAT-1; NMN varied, ATP fixed (0.5 mM), read-out: Ki towards NMN, hNMNAT-1",168 ± 19 µM
same,"mode of inhibition versus ATP (in words), hNMNAT-1",hNMNAT-1; [6],uncompetitive character
same,"mode of inhibition (in brackets) towards ATP, hNMNAT-3",hNMNAT-3 [2]; ATP varied,C
same,Ki,"hNMNAT-3 [2]; ATP varied, NMN fixed (0.5 mM), read-out: Ki towards ATP, hNMNAT-3",223 ± 22 µM
same,"mode of inhibition (in brackets) towards NMN, hNMNAT-3",hNMNAT-3 [2]; NMN varied,C
same,Ki,"hNMNAT-3 [2]; NMN varied, ATP fixed (0.5 mM), read-out: Ki towards NMN, hNMNAT-3",224 ± 17 µM
same,"mode of inhibition (in brackets) towards ATP, hNMNAT-2",hNMNAT-2; ATP varied,U
same,Ki,hNMNAT-2; [4],41 ± 14 µM
same,"mode of inhibition (in brackets) towards NMN, hNMNAT-2",hNMNAT-2; NMN varied,M
same,Ki,hNMNAT-2; [5],60 ± 18 µM
same,"mode of inhibition versus ATP (in words), hNMNAT-2",hNMNAT-2; [6],uncompetitive character
